US9321737B2, “CDK8-CDK19 selective inhibitors and their use in anti-metastatic and chemopreventative methods for cancer” (SENEX BIOTECHNOLOGY INC, priority 2012, dated 2016)

What was measured:
[1] = 12-day animal toxicity study; format: in vivo, Balb/c mice; conditions: 40 mg/kg i.p.
[2] = system: A549 human lung xenograft tumors; assay: Pretreatment before A549 xenograft injection; format: in vivo, CB-17 SCID mice; conditions: 5 daily i.p. 40 mg/kg before s.c. A549 injection; p<0.007 on days 21 and 24
Procedure: Mice were then injected s.c. with 1×10^6 cells of human A549 lung cancer cell line; the tumor cells were injected in the afternoon of the same day when the last dose of treatment was administered in the morning. Starting from day 7 after tumor injection, mice were monitored for tumor formation twice a week, with 3-4 day intervals, until day 24 after tumor injection; tumor volumes were calculated via caliper measurements. By the end of the study, all the mice in both groups developed measurable tumors. […] Each point represents mean and standard deviation of tumor volume within a group of 10 mice.

YSK4 = molecular target: T1, YSK4 (Homo sapiens, UniProt Q56UN5); assay: KinomeScan ATP pocket binding inhibition, YSK4; conditions: 2,000 nM
T1 construct: purchased KinomeScan, a division of Ambit Biosciences
T1 sequence (Q56UN5 1-1328): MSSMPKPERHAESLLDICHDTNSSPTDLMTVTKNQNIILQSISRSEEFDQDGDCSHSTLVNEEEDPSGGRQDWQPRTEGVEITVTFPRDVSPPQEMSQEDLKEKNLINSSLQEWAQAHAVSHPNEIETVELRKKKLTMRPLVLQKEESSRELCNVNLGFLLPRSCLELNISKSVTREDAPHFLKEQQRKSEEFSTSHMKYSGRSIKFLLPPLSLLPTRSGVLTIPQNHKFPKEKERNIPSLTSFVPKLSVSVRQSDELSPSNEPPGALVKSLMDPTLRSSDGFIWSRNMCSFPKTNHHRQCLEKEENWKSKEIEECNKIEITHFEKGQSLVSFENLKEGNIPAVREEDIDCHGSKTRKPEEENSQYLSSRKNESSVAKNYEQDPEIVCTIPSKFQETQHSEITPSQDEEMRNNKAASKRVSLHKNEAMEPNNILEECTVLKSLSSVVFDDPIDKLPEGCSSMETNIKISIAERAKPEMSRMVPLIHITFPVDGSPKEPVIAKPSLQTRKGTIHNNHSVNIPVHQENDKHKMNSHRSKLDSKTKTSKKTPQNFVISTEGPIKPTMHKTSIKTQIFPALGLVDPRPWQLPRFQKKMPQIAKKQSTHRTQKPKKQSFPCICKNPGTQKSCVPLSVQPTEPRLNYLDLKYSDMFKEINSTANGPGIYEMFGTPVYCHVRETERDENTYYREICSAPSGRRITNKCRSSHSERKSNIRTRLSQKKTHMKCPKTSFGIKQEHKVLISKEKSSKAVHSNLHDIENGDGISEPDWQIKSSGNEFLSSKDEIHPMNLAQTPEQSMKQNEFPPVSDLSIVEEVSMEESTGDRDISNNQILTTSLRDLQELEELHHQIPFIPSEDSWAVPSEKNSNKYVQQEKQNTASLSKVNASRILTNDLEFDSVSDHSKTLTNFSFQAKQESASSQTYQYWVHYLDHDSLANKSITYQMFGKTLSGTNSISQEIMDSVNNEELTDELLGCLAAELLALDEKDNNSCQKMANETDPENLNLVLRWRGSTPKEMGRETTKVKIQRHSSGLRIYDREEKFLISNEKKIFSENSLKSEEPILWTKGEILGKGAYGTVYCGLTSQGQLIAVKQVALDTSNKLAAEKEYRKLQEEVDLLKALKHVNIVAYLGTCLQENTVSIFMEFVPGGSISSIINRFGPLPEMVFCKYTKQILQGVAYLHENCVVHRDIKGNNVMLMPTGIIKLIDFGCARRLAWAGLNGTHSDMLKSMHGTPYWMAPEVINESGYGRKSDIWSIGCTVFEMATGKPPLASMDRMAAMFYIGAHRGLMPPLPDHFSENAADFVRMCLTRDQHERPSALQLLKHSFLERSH
Excerpt: (§1) (16) The results of this analysis are presented in FIGS. 6A-B in the form of an evolutionary dendrogram of the kinase family, where kinase inhibition is represented by red circles, the size of which represents the magnitude of the inhibition.

[3] = Pharmacokinetics in rat plasma; format: in vivo; conditions: i.p. 40 mg/kg
MDA-MB-468 = assay: Breast carcinoma cell growth, MTT, MDA-MB-468; format: cell-based; conditions: five days
CDK8 = CDK8 (Homo sapiens, UniProt P49336); assay: In vitro CDK8 kinase activity inhibition (ProQinase assay kit); conditions: read-out: IC50, inhibition of CDK8 kinase activity, different assays
Chain of CDK8 (P49336 whole entry): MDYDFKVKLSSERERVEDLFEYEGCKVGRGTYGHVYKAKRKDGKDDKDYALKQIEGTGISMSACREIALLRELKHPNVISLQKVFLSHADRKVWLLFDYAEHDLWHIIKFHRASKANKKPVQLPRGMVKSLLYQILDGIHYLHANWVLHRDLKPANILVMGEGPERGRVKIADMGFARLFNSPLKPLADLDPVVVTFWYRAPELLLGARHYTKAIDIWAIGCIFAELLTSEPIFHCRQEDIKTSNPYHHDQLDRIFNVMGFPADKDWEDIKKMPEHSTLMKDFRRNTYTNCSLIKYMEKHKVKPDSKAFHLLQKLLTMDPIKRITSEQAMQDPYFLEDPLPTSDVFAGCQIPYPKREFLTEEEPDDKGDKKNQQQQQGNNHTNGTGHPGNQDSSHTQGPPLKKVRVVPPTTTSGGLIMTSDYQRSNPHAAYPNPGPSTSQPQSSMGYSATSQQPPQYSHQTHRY

CDK19 = CDK19 (Homo sapiens, UniProt Q9BWU1); assay: KinomeScan ATP pocket binding inhibition, CDK19; conditions: 2,000 nM
Chain of CDK19 (Q9BWU1 whole entry): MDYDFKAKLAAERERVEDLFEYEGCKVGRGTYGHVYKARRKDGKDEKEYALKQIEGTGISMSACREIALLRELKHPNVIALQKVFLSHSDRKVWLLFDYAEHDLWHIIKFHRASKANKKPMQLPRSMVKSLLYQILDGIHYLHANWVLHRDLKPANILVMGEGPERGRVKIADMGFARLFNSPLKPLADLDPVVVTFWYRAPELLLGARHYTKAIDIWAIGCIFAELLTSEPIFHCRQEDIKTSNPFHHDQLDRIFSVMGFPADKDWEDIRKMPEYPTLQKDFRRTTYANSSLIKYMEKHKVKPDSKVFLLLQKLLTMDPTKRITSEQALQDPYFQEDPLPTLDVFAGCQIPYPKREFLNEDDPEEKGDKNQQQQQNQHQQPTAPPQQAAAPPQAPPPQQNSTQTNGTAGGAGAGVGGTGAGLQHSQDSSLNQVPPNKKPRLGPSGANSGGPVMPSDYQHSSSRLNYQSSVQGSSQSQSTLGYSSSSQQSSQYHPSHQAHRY
Excerpt: as §1

Water solubility = format: physicochemical; conditions: 40° C., 30 min, no pellet after centrifugation
Procedure: The compounds were also tested for solubility in 20% propylene glycol and in water, as follows. Compounds (dry powder) were dissolved in 20% propylene glycol at a concentration of 1 mM at a temperature of 40° C. with occasional vortexing. After 30 min, the solution was centrifuged at 10,000×g for 5 min. Serial dilutions of the cleared supernatant were prepared and used to measure the compound concentrations through OD reading, relative to 1 μM standard solution of the same compound. The results of the measurement were expressed as % solubility of the compound at 1 mM in 20% propylene glycol. To determine water solubility, the compounds (dry powder) were initially dissolved in water at a concentration of 100 mM at a temperature of 40° C. with occasional vortexing. After 30 min, the solution was centrifuged at 10,000×g for 5 min, and the formation of an insoluble pellet was monitored. At subsequent steps, the compound was attempted to be dissolved at lower concentrations, until no pellet was observed after centrifugation, indicating complete solution of the compound.

[4] = system: MDA-MB-468 triple-negative breast cancer (TNBC) cells; assay: Pretreatment and treatment, MDA-MB-468 orthotopic engraftment; format: in vivo, female nude mice
Procedure: Next we tested the effect of 5-day pretreatment with 25 mg/kg daily doses of Senexin B (i.p.) on the engraftment of MDA-MB-468 triple-negative breast cancer (TNBC) cells, injected orthotopically in the fat pad of 6-8 week old female nude mice (4 per group), following the last Senexin B treatment. The appearance of palpable tumors was scored every day. […] In the experiment shown in FIG. 9B, mice were treated (daily i.p. injections with 40 mg/kg Senexin B) both before MDA-MB-468 injection (for three days) and after the injection.

[5] = system: MDA-MB-468 TNBC tumor invasion; assay: Histological analysis of MDA-MB-468 tumor invasion (H&E); format: in vivo, female nude mice; conditions: tumors from FIG. 15B experiment
Excerpt: At the end of the experiment shown in FIG. 15B, mice were sacrificed, tumors were removed, formalin fixed, sectioned and processed for histological analysis after H&E staining.

CN1CCN(C(=O)c2ccc3cc(CCNc4ncnc5ccc(C#N)cc45)ccc3c2)CC1 [SNX2-1-165]
body weight gains at end of study ([1]; 5 daily doses, 2-day break): indistinguishable from the carrier-treated mice
decrease in lymphocytes (blood counts) ([1]; 12-day study): ~25%
spleen weight decrease ([1]; 12-day study): ~20%
blood counts, other cell types ([1]; 12-day study, relative to control mice): no changes
tumor growth (tumor volume) after pretreatment [2]: significantly slower tumor growth
% inhibition of YSK4 (YSK4): 59%
area under the curve (AUC) [3]: 14100 ng·h/mL
growth inhibition, MDA-MB-468 (MDA-MB-468): dose-dependent growth inhibition
IC50 (CDK8): 24 to 50 nM
% inhibition of CDK19 (CDK19): 98.6%
Water Solubility (Water solubility): ≥ 50 mM
Water Solubility (Water solubility; listed as 165): Soluble at 50 mM
appearance of palpable tumors ([4]; 5-day pretreatment 25 mg/kg daily i.p.): significantly slower appearance of palpable tumors
tumor growth (tumor volumes, caliper) ([4]; daily i.p. 40 mg/kg, three days before and after injection): strong and sustained inhibition of tumor growth
invasive or non-invasive tumor growth [5]: non-invasive
